# Measurements as given in patent US11530206B2, “Phenylaminopyrimidine amide autophagy inhibitors and methods of use thereof” (Deciphera Pharmaceuticals, LLC, priority 2019, dated 2022).
# Target: T1, ULK1 kinase (Homo sapiens, UniProt O75385)
# T1 construct: purchased Eurofins 14-959
# T1 sequence (O75385 with tags, fused parts or gaps): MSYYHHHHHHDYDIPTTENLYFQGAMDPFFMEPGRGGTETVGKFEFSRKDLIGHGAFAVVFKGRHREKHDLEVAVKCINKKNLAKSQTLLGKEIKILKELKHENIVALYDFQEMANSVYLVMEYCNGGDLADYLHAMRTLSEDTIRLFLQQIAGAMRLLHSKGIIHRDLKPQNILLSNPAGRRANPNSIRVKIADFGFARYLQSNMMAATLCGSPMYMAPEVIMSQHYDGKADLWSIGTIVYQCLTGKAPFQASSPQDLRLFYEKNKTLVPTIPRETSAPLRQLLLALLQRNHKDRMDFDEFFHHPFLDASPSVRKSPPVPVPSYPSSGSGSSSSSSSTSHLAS
# Experiment: Biochemical assay for ULK1.2 (coupled pyruvate kinase/lactate dehydrogenase assay)
# Details: 19 nM ULK1 (residues 1-314, His tag), myelin basic protein, 1 mM ATP
# Experimental: Biochemical Assay for ULK1.2 (SEQ. ID NO: 1)
# Inhibition of ULK1 was measured by adding serial diluted test compound (final assay concentration of 1% DMSO). A decrease in absorption at 340 nm was monitored continuously for 6 hours at 30° C. on a multi-mode microplate reader (BioTek). The reaction rate was calculated using the 2-3 h time frame. The reaction rate at each concentration of compound was converted to percent inhibition using controls (i.e. reaction with no test compound and reaction with a known inhibitor) and IC50 values were calculated by fitting a four-parameter sigmoidal curve to the data using Prism (GraphPad software).
row,IC50 [nM],SMILES
1,100 to 500,Cc1cc(N2CCN(C)CC2)ccc1Nc1ncc(C(F)(F)F)c(NCCCN2CCCC2=O)n1 [Example 2]
2,1 to 25,Cc1cc(N2CCN(C(C)C)CC2)ccc1Nc1ncc(C(F)(F)F)c(NCCCN2CCCCC2=O)n1 [Example 17]
3,100 to 500,Cc1cc(N2CCNCC2)ccc1Nc1ncc(C(F)(F)F)c(NCCCN2CCCC2=O)n1 [Example 3]
4,> 500,Cc1cc(C2CCNCC2)ccc1Nc1ncc(Cl)c(NCCCN2CCCCC2=O)n1 [Example 5]
5,> 500,CC1(C)CCC(=O)N1CCCNc1nc(Nc2ccc(N3CCN(C4CC4)CC3)cc2)ncc1C1CC1 [Example 1]
6,1 to 25,Cc1cc(N2CCNCC2)ccc1Nc1ncc(C(F)(F)F)c(NCCCN2CCCCC2=O)n1 [Example 16]
7,> 500,Cc1cc(C2CCN(C)CC2)ccc1Nc1ncc(Cl)c(NCCCN2CCCCC2=O)n1 [Example 6]

# Target: T2, ULK1 kinase (Homo sapiens, UniProt O75385, E37A/K38A)
# T2 construct: purchased Beryllium
# T2 sequence (O75385 1-283 E37A/K38A): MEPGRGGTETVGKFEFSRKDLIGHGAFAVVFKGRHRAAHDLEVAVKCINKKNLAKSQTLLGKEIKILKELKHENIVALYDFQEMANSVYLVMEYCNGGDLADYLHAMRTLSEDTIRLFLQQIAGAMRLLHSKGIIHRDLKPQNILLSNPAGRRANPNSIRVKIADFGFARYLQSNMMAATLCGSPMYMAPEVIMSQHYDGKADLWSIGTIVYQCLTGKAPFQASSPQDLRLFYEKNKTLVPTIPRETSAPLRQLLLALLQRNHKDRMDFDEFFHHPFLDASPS
# Experiment: Biochemical assay for ULK1.3 (coupled pyruvate kinase/lactate dehydrogenase assay, peptide substrate)
# Details: 0.1 nM ULK1 (residues 1-283), 1 mM ATP
# Experimental: Biochemical Assay for ULK1.3 (SEQ. ID NO: 2)
# Inhibition of ULK1 was measured by adding serial diluted test compound (final assay concentration of 1% DMSO). A decrease in absorption at 340 nm was monitored continuously for 6 hours at 30° C. on a multi-mode microplate reader (BioTek). The reaction rate was calculated using the 2-3 h time frame. The reaction rate at each concentration of compound was converted to percent inhibition using controls (i.e. reaction with no test compound and reaction with a known inhibitor) and IC50 values were calculated using software routines in Prism (GraphPad software).
row,IC50 [nM],SMILES
1,1 to 25,CCc1cc(N2C[C@@H]3C[C@H]2CN3C)ccc1Nc1ncc(C(F)(F)F)c(NCCCN2CCCOC2=O)n1 [Example 120]
2,1 to 25,COCc1cc(N2CCN(C)CC2)ccc1Nc1ncc(C(F)(F)F)c(NCCCN2CCOCCC2=O)n1 [Example 127]
3,1 to 25,COCc1cc(N2CCN(C)CC2)ccc1Nc1ncc(C(F)(F)F)c(NCCCN2CCCOC2=O)n1 [Example 147]

# System: ULK kinase
# Experiment: pATG13 levels of mutant KRas A549 cells after treatment with ULK inhibitors in combination with trametinib (ELISA)
# Type: cell-based, human
# Details: A549 (KRAS mutant) lung cancer cells, 250 nM trametinib, overnight, pS318-ATG13
# Experimental: Cellular Inhibition of ULK Kinase Substrate ATG13 Protein pATG13 Levels of Mutant KRas A549 Cells after Treatment with ULK Inhibitors in Combination with Trametinib
# (§1) A549 (KRAS mutant) human lung cancer cells (6,000 cells/well) were added to a 384-well tissue-culture treated plate in 50 μL of pre-warmed DMEM medium supplemented with 10% characterized fetal bovine serum (Invitrogen, Carlsbad, Calif.), 100 units/mL penicillin G, and 100 μg/mL streptomycin and allowed to grow overnight at 37° C., 5% CO2, and 95% humidity. The following day, 10 μL of media containing trametinib or DMSO as a control was added to wells. […] A dose response of a test compound (0.6 μL per well) was added. DMSO (0.6 μL) was added to control wells. The plate was briefly shaken to mix wells and then incubated at 37° C. overnight. The next day, the media was aspirated and cells were washed with Dulbecco's Phosphate Buffered Saline (Gibco). Cells were lysed using MPER lysis buffer (Pierce, Rockford, Ill.) containing Halt Phosphatase and Protease Inhibitors (Pierce, Rockford, Ill.) and Phosphatase inhibitor cocktail 2 (Sigma, St. Louis, Mo.) at 4° C. for 10 minutes with shaking.
# (§2) Plate wells were washed with ELISA wash buffer. Cell lysate was added to wells and incubated at room temperature for 2 hours. Plate wells were washed with ELISA wash buffer. […] Plate wells were washed with ELISA wash buffer. […] Plate wells were washed with ELISA wash buffer. […] The reaction was stopped with 2N Sulfuric Acid. The plate was analyzed at on a plate reader measuring absorbance at 450 nm and 540 nm (background). Signal was calculated by first subtracting the background absorbance at 540 nm from the absorbance at 450 nm for each well. Next, the background corrected absorbance at 450 nm from blank wells was subtracted from test wells. Data was compared to control wells to determine % ATG13 phosphorylation. GraphPad Prism was used to calculate IC50 values.
row,IC50 [nM],SMILES
1,100 to 300,CCc1cc(N2C[C@@H]3C[C@H]2CN3C)ccc1Nc1ncc(C(F)(F)F)c(NCCCN2CCCOC2=O)n1 [Example 120]
2,100 to 300,COCc1cc(N2CCN(C)CC2)ccc1Nc1ncc(C(F)(F)F)c(NCCCN2CCOCCC2=O)n1 [Example 127]
3,100 to 300,COCc1cc(N2CCN(C)CC2)ccc1Nc1ncc(C(F)(F)F)c(NCCCN2CCCOC2=O)n1 [Example 147]
4,10 to 100,Cc1cc(N2CCNCC2)ccc1Nc1ncc(C(F)(F)F)c(NCCCN2CCCCC2=O)n1 [Example 16]

# System: ULK kinase
# Experiment: pATG13 levels of mutant KRas MiaPaCa-2 cells after treatment with ULK inhibitors in combination with trametinib (ELISA)
# Type: cell-based, human
# Details: MiaPaCa-2 pancreatic cancer cells, 250 nM trametinib, overnight, pS318-ATG13
# Experimental: as §1, with “MiaPaCa-2” for “A549 (KRAS mutant)”, “pancreatic” for “lung”, “(10000” for “(6,000”, “G, 100 µg/mL streptomycin,” for “G,”, “2.5% Horse Serum” for “100 μg/mL streptomycin”
# as §2
row,IC50 [nM],SMILES
1,100 to 300,CCc1cc(N2C[C@@H]3C[C@H]2CN3C)ccc1Nc1ncc(C(F)(F)F)c(NCCCN2CCCOC2=O)n1 [Example 120]
2,100 to 300,COCc1cc(N2CCN(C)CC2)ccc1Nc1ncc(C(F)(F)F)c(NCCCN2CCOCCC2=O)n1 [Example 127]
3,100 to 300,COCc1cc(N2CCN(C)CC2)ccc1Nc1ncc(C(F)(F)F)c(NCCCN2CCCOC2=O)n1 [Example 147]
4,10 to 100,Cc1cc(N2CCNCC2)ccc1Nc1ncc(C(F)(F)F)c(NCCCN2CCCCC2=O)n1 [Example 16]

# Target: T3, LRRK2 kinase (Homo sapiens, UniProt Q5S007)
# T3 construct: purchased Thermo Fisher
# Experiment: Biochemical assay for LRRK2 (coupled pyruvate kinase/lactate dehydrogenase assay)
# Details: 26.4 nM LRRK2 (residues 970-2528), peptide substrate, 1 mM ATP
# Experimental: Example 138. Biochemical Assay for LRRK2 (SEQ. ID NO: 4)
# Activity of LRRK2 kinase was determined spectroscopically using a coupled pyruvate kinase/lactate dehydrogenase assay that continuously monitors the ATP hydrolysis-dependent oxidation of NADH (e.g., Schindler et al. Science (2000) 289: 1938-1942). Assays were conducted in 384-well plates (100 μL final volume) using 26.4 nM LRRK2 (Thermo Fisher), 0.1 mM peptide substrate ([…] (SEQ ID NO: 6)), 1.5 units pyruvate kinase, 2.1 units lactate dehydrogenase, 1 mM phosphoenol pyruvate, 0.28 mM NADH and 1 mM ATP in assay buffer (100 mM Tris, pH 7.5, 15 mM MgCl2, 0.5 mM DTT, 0.004% (w/v) BSA, and 0.004% Triton X-100). Inhibition of LRRK2 was measured by adding serial diluted test compound (final assay concentration of 1% DMSO). A decrease in absorption at 340 nm was monitored continuously for 6 hours at 30° C. on a multi-mode microplate reader (BioTek). The reaction rate was calculated using the 2-3 h time frame. The reaction rate at each concentration of compound was converted to percent inhibition using controls (i.e. reaction with no test compound and reaction with a known inhibitor) and IC50 values were calculated using software routines in Prism (GraphPad software).
# T3 sequence (Q5S007 with tags, fused parts or gaps): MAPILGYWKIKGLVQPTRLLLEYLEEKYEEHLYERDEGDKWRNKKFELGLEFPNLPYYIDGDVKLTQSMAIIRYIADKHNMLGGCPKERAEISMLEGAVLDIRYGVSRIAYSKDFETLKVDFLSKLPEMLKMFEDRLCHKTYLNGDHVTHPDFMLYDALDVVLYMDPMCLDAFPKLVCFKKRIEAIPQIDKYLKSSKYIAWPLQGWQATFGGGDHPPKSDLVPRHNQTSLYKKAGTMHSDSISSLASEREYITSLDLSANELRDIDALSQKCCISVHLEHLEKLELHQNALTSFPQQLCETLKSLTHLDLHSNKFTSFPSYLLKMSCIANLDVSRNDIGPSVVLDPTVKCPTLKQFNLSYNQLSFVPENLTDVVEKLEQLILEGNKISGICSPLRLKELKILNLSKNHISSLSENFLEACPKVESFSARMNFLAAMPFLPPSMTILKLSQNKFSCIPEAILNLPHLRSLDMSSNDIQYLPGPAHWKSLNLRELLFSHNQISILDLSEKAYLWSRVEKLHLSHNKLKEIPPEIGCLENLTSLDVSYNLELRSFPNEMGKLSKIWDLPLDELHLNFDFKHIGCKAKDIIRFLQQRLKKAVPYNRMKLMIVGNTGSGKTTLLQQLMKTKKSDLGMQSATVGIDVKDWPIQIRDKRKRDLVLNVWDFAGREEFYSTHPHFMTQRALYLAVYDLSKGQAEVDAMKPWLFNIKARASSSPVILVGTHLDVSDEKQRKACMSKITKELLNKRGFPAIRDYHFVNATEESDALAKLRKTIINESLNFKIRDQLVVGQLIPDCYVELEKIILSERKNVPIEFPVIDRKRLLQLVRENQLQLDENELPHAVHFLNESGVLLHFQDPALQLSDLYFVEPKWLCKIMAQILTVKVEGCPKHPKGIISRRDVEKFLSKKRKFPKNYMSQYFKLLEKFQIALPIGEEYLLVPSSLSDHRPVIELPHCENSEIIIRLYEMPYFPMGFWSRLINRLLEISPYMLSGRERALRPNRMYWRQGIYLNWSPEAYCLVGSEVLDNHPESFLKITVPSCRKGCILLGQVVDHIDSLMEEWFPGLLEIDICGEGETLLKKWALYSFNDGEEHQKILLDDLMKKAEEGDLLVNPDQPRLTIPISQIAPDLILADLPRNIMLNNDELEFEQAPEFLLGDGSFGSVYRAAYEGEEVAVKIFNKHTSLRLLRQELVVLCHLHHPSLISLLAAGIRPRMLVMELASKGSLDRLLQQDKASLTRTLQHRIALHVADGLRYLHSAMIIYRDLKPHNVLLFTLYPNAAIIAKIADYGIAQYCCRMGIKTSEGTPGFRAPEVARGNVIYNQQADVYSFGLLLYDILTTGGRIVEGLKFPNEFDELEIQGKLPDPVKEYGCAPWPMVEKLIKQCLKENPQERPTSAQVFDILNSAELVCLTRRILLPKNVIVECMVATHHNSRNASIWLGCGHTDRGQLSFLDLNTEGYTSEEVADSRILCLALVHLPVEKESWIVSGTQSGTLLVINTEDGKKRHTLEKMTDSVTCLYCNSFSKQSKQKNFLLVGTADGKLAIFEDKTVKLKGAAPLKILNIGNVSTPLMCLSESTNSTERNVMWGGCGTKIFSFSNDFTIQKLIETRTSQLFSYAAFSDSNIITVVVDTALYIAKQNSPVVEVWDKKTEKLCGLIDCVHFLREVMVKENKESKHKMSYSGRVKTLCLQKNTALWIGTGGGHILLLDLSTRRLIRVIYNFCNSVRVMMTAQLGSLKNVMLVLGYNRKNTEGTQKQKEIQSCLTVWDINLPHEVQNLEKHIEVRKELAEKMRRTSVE
row,IC50 [nM],SMILES
1,100 to 300,CCc1cc(N2C[C@@H]3C[C@H]2CN3C)ccc1Nc1ncc(C(F)(F)F)c(NCCCN2CCCOC2=O)n1 [Example 120]
2,300 to 600,COCc1cc(N2CCN(C)CC2)ccc1Nc1ncc(C(F)(F)F)c(NCCCN2CCOCCC2=O)n1 [Example 127]
3,300 to 600,COCc1cc(N2CCN(C)CC2)ccc1Nc1ncc(C(F)(F)F)c(NCCCN2CCCOC2=O)n1 [Example 147]

# More lines, now with the values behind:
row,SMILES,IC50 [nM]
1,Cc1cc(N2CCN(C)CC2)ccc1Nc1ncc(C(F)(F)F)c(NCCCN2CCCC2=O)n1 [Example 2],1 to 100
2,Cc1cc(C2CCNCC2)ccc1Nc1ncc(Cl)c(NCCCN2CCCCC2=O)n1 [Example 5],100 to 300
3,CC1(C)CCC(=O)N1CCCNc1nc(Nc2ccc(N3CCN(C4CC4)CC3)cc2)ncc1C1CC1 [Example 1],> 600
